The values that follow come from ChEMBL document CHEMBL1151973, “Rhazinilam and quebrachamine derivatives from Yunnan Kopsia arborea” (J Nat Prod, 2009).

The structures appear in SMILES notation. Where only a bound is given, the exact number is not on record here.

A word on the IC50: it is the concentration that gives 50% inhibition. A higher IC50 goes with weaker potency in that assay.

For one assay, the system named is HT-29. The experiment in a line: Cytotoxicity against human HT-29 cells after 96 hrs by microplate reader assay. The conditions noted are these: HT-29, 96 h. The assay is classed as functional, cell-based.
A further assay deals with A549. Description: Cytotoxicity against human A549 cells after 96 hrs by microplate reader assay. Format: functional, cell-based. The conditions noted are these: A549, 96 h.

Consider `CC[C@@]12CCCN(CCc3c([nH]c4ccccc34)CC1)C2`, for which the figures for the IC50 in the assay with HT-29 and in the assay on A549 were 30 µM and > 30 µM, respectively.

As for `CC[C@]12CCCn3c(COC)cc(c31)-c1ccccc1NC(=O)CC2`, the IC50 in the assay on HT-29 was found to be 4.67 µM; in the assay on A549, 5.38 µM.

Regarding `CC[C@]12CCCn3c(CO)cc(c31)-c1ccccc1NC(=O)CC2`, the values for the IC50 in the assay with HT-29 and with A549 were 8.89 µM and 8.21 µM, respectively.

Regarding `CCOCc1cc2c3n1CCC[C@]3(CC)CCC(=O)Nc1ccccc1-2`, the IC50 with HT-29 came out at 6.39 µM; with A549, 7.44 µM.

For `CC(=O)O[C@@]12CO[C@@H]1C[C@H](O)[C@@]1(C)C(=O)[C@H](O)C3=C(C)[C@@H](OC(=O)[C@H](O)[C@@H](NC(=O)OC(C)(C)C)c4ccccc4)C[C@@](O)([C@@H](OC(=O)c4ccccc4)[C@H]21)C3(C)C` [DOCETAXEL], the IC50 came out at 0.000334 µM in the assay on HT-29 and 0.000495 µM in the assay on A549.

Turning to `CC[C@@]12CCCN(CCc3c(n(COC)c4ccccc34)CC1)C2` [KOPSIYUNNANINE D], the IC50 with HT-29 was 30 µM; in the assay with A549 it was > 30 µM.

For `CC[C@]12CCCn3ccc(c31)-c1ccccc1NC(=O)CC2` [RHAZINILAM], the IC50 in the assay with HT-29 and in the assay on A549 was 0.35 µM in each case.
